# Assay results taken from patent publication US20220162167A1, “SUBSTITUTED BICYCLIC AND TETRACYCLIC QUINONES AND USE THEREOF AS ANTI-CANCER AGENTS” (THE REGENTS OF THE UNIVERSITY OF MICHIGAN, priority 2019, published 2022).
# How the values were obtained:
# Format in all cases: cell-based
# CCRF-CEM = experiment: NCI60 growth inhibition, CCRF-CEM; conditions: Leukemia
# Experimental: (§1) Representative compounds were tested in 60 cell lines (NCI60) at the National Cancer Institute, Developmental Therapeutics Program.
# (§2) Representative compounds were tested in a panel of 60 cancer cells (NCI 60) at the National Cancer Institute. Growth inhibition are shown in table 2, table 3, table 4, table 5, and FIG. 1, FIG. 2, FIG. 3, FIG. 4, FIG. 5.
# HL-60(TB) = experiment: NCI60 growth inhibition, HL-60(TB); conditions: Leukemia
# Experimental: as §1, §2
# K-562 = experiment: NCI60 growth inhibition, K-562; conditions: Leukemia
# Experimental: as §1, §2
# MOLT-4 = experiment: NCI60 growth inhibition, MOLT-4; conditions: Leukemia
# Experimental: as §1, §2
# RPMI-8226 = experiment: NCI60 growth inhibition, RPMI-8226; conditions: Leukemia
# Experimental: as §1, §2
# SR = experiment: NCI60 growth inhibition, SR; conditions: Leukemia
# Experimental: as §1, §2
# A549/ATCC = experiment: NCI60 growth inhibition, A549/ATCC; conditions: Non-Small Cell Lung Cancer
# Experimental: as §1, §2
# EKVX = experiment: NCI60 growth inhibition, EKVX; conditions: Non-Small Cell Lung Cancer
# Experimental: as §1, §2
# HOP-62 = experiment: NCI60 growth inhibition, HOP-62; conditions: Non-Small Cell Lung Cancer; also: test concentration or dose not given here
# Experimental: as §1, §2
# HOP-92 = experiment: NCI60 growth inhibition, HOP-92; conditions: Non-Small Cell Lung Cancer
# Experimental: as §1, §2
# NCI-H226 = experiment: NCI60 growth inhibition, NCI-H226; conditions: Non-Small Cell Lung Cancer; also: test concentration or dose not given here
# Experimental: as §1, §2
# NCI-H23 = experiment: NCI60 growth inhibition, NCI-H23; conditions: Non-Small Cell Lung Cancer
# Experimental: as §1, §2
# NCI-H322M = experiment: NCI60 growth inhibition, NCI-H322M; conditions: Non-Small Cell Lung Cancer
# Experimental: as §1, §2
# NCI-H460 = experiment: NCI60 growth inhibition, NCI-H460; conditions: Non-Small Cell Lung Cancer
# Experimental: as §1, §2
# NCI-H522 = experiment: NCI60 growth inhibition, NCI-H522; conditions: Non-Small Cell Lung Cancer
# Experimental: as §1, §2
# COLO 205 = experiment: NCI60 growth inhibition, COLO 205; conditions: Colon Cancer
# Experimental: as §1, §2
# HCC-2998 = experiment: NCI60 growth inhibition, HCC-2998; conditions: Colon Cancer
# Experimental: as §1, §2
# HCT-116 = experiment: NCI60 growth inhibition, HCT-116; conditions: Colon Cancer
# Experimental: as §1, §2
# HCT-15 = experiment: NCI60 growth inhibition, HCT-15; conditions: Colon Cancer; also: test concentration or dose not given here
# Experimental: as §1, §2
# HT29 = experiment: NCI60 growth inhibition, HT29; conditions: Colon Cancer
# Experimental: as §1, §2
# KM12 = experiment: NCI60 growth inhibition, KM12; conditions: Colon Cancer; also: test concentration or dose not given here
# Experimental: as §1, §2
# SW-620 = experiment: NCI60 growth inhibition, SW-620; conditions: Colon Cancer; also: test concentration or dose not given here
# Experimental: as §1, §2
# SF-268 = experiment: NCI60 growth inhibition, SF-268; conditions: CNS Cancer; also: test concentration or dose not given here
# Experimental: as §1, §2
# SF-295 = experiment: NCI60 growth inhibition, SF-295; conditions: CNS Cancer; also: test concentration or dose not given here
# Experimental: as §1, §2
# SF-539 = experiment: NCI60 growth inhibition, SF-539; conditions: CNS Cancer
# Experimental: as §1, §2
# SNB-19 = experiment: NCI60 growth inhibition, SNB-19; conditions: CNS Cancer; also: test concentration or dose not given here
# Experimental: as §1, §2
# SNB-75 = experiment: NCI60 growth inhibition, SNB-75; conditions: CNS Cancer; also: test concentration or dose not given here
# Experimental: as §1, §2
# U251 = experiment: NCI60 growth inhibition, U251; conditions: CNS Cancer
# Experimental: as §1, §2
# LOX IMVI = experiment: NCI60 growth inhibition, LOX IMVI; conditions: Melanoma
# Experimental: as §1, §2
smiles,measurement,setting,value
"Cc1ccc2c(n1)C(=O)C(Cl)=C(Nc1ccc(N3CCN(C)CC3)cc1)C2=O [Compound 13, 7-chloro-2-methyl-6-((4-(4-methylpiperazin-1-yl)phenyl)amino)quinoline-5,8-dione]",Growth inhibition (% control) GIPRCNT,CCRF-CEM,−6.237 % control
same,Growth inhibition (% control) GIPRCNT,HL-60(TB),−46.6759 % control
same,Growth inhibition (% control) GIPRCNT,K-562,−12.2778 % control
same,Growth inhibition (% control) GIPRCNT,MOLT-4,−25.588 % control
same,Growth inhibition (% control) GIPRCNT,RPMI-8226,−32.551 % control
same,Growth inhibition (% control) GIPRCNT,SR,−5.054 % control
same,Growth inhibition (% control) GIPRCNT,A549/ATCC,97.64 % control
same,Growth inhibition (% control) GIPRCNT,EKVX,−81.7903 % control
same,Growth inhibition (% control) GIPRCNT,HOP-62,63.65 % control
same,Growth inhibition (% control) GIPRCNT,HOP-92,−86.301 % control
same,Growth inhibition (% control) GIPRCNT,NCI-H226,105.4813 % control
same,Growth inhibition (% control) GIPRCNT,NCI-H23,16.65 % control
same,Growth inhibition (% control) GIPRCNT,NCI-H322M,97.35 % control
same,Growth inhibition (% control) GIPRCNT,NCI-H460,97.22 % control
same,Growth inhibition (% control) GIPRCNT,NCI-H522,−63.7561 % control
same,Growth inhibition (% control) GIPRCNT,COLO 205,82.4617 % control
same,Growth inhibition (% control) GIPRCNT,HCC-2998,95.31 % control
same,Growth inhibition (% control) GIPRCNT,HCT-116,−64.939 % control
same,Growth inhibition (% control) GIPRCNT,HCT-15,70.44 % control
same,Growth inhibition (% control) GIPRCNT,HT29,66.44 % control
same,Growth inhibition (% control) GIPRCNT,KM12,92.08 % control
same,Growth inhibition (% control) GIPRCNT,SW-620,−69.7878 % control
same,Growth inhibition (% control) GIPRCNT,SF-268,77.72 % control
same,Growth inhibition (% control) GIPRCNT,SF-295,99.36 % control
same,Growth inhibition (% control) GIPRCNT,SF-539,−24.5048 % control
same,Growth inhibition (% control) GIPRCNT,SNB-19,94.6 % control
same,Growth inhibition (% control) GIPRCNT,SNB-75,−53.8363 % control
same,Growth inhibition (% control) GIPRCNT,U251,8.466 % control
same,Growth inhibition (% control) GIPRCNT,LOX IMVI,−95.4404 % control
